According to ChEMBL document CHEMBL2202996, “Synthesis, evaluation, and radiolabeling of new potent positive allosteric modulators of the metabotropic glutamate receptor 2 as potential tracers for positron emission tomography imaging” (J Med Chem, 2012):

Experiments:
CHO [1] = test: Selectivity ratio for human mGluR4 to human mGluR2 expressed in CHO cell membranes; type: cell-based
[2] = Cmax in Wistar rat brain at 0.63 mg/kg, iv after 5 mins; type: ADME, organism-based; set-up: dose 0.63 mg/kg, route intravenous
Liver microsomes [3] = test: Drug metabolism in human liver microsomes assessed as O-methylated compound derivative; type: ADME, Microsome
HEK293 [4] = test: Selectivity ratio for human mGluR3 expressed in HEK293 cells to human mGluR2 expressed in CHO cell membranes; type: cell-based
HEK293 [5] = test: Selectivity ratio for human mGluR7 expressed in HEK293 cells to human mGluR2 expressed in CHO cell membranes; type: cell-based
Liver microsomes [6] = test: Drug metabolism in human liver microsomes assessed as M+O oxidative metabolite; type: ADME, Microsome
[7] = biological target: T1, Metabotropic glutamate receptor 2 (Homo sapiens, UniProt Q14416); test: Agonist activity at human mGLuR2 expressed in CHO cell membrane assessed as […] after 30 mins by scintillation counting relative to control; type: functional, cell membranes
Target sequence in this assay (Q14416 19-872 limits assumed): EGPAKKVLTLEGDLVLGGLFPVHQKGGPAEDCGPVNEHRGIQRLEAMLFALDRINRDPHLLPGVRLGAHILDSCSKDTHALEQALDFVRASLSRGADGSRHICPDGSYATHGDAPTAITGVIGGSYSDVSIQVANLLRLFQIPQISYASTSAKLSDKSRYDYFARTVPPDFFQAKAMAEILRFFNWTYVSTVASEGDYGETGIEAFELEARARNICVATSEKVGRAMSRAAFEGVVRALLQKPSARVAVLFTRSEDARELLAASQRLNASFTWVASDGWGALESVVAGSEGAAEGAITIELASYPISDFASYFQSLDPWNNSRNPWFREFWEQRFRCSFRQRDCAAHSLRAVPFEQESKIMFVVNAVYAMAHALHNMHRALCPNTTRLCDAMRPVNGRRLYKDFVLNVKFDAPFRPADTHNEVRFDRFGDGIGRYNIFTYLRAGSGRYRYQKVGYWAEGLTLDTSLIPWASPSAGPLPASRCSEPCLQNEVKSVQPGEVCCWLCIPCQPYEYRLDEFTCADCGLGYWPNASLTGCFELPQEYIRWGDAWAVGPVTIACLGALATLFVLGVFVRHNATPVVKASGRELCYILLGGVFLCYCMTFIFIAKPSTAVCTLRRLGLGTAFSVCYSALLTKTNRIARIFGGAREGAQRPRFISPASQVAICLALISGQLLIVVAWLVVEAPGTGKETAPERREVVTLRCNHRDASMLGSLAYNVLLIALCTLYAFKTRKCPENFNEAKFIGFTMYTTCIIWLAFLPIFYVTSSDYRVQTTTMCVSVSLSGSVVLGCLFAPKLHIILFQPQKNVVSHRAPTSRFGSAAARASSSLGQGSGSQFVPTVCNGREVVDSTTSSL

D(1A) dopamine receptor [8] = biological target: T2, D(1A) dopamine receptor (Homo sapiens, UniProt P21728); test: Binding affinity to dopamine D1 receptor
[9] = Fraction unbound in human plasma; type: ADME, cell-free
D(1A) dopamine receptor [10] = biological target: T2, D(1A) dopamine receptor; test: Binding affinity to dopamine D1 receptor at 10 uM by CEREP assay
[11] = biological target: T1, Metabotropic glutamate receptor 2; test: Displacement of [3H]JNJ-40068782 from human mGLuR2 expressed in CHO cell membrane after 60 mins by liquid scintillation counting; type: cell membranes
Target sequence in this assay (Q14416 whole entry): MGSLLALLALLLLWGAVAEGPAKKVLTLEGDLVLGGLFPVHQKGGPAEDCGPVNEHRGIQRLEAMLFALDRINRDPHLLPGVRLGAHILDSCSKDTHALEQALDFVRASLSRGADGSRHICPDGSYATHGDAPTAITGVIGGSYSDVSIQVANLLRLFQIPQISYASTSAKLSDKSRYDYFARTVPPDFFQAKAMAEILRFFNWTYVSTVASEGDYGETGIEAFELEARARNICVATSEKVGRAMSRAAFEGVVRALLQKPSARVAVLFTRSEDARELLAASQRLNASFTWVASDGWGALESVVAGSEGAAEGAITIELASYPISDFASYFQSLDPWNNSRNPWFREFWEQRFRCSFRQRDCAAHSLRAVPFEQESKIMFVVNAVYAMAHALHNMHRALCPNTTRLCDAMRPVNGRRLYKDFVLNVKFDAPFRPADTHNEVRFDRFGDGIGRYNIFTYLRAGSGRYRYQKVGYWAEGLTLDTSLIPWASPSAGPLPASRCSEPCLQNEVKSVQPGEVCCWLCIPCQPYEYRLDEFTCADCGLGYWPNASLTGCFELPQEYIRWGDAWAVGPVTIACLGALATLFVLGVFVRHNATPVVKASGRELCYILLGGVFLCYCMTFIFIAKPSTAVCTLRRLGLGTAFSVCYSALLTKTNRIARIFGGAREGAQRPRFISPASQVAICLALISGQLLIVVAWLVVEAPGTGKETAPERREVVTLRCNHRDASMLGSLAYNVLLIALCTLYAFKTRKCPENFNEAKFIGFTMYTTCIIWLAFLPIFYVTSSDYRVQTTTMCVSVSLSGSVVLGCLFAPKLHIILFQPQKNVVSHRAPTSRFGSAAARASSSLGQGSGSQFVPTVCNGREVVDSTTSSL

CHO [12] = test: Selectivity ratio for rat mGluR6 to human mGluR2 expressed in CHO cell membranes; type: cell-based
HEK293 [13] = test: Selectivity ratio for human mGluR5 expressed in HEK293 cells to human mGluR2 expressed in CHO cell membranes; type: cell-based
Liver microsomes [14] = test: Drug metabolism in rat liver microsomes assessed as O-methylated compound derivative; type: ADME, Microsome
[15] = Drug level in Wistar rat brain at 0.63 mg/kg, iv after 1 hr; type: ADME, organism-based; set-up: dose 0.63 mg/kg, route intravenous; conditions: read-out: Drug uptake
[16] = biological target: T1, Metabotropic glutamate receptor 2; test: Agonist activity at human mGLuR2 expressed in CHO cell membrane assessed as […] after 30 mins by scintillation counting; type: functional, cell membranes; conditions: read-out: EC50
Target sequence in this assay (Q14416 whole entry): as above

[17] = Ratio of drug level in brain to plasma of Wistar rat brain at 0.63 mg/kg, iv; type: ADME, organism-based; set-up: dose 0.63 mg/kg, route intravenous; conditions: read-out: BPR
[18] = biological target: T3, Sodium-dependent dopamine transporter (Homo sapiens, UniProt Q01959); test: Binding affinity to DAT at 10 uM by CEREP assay
HEK293 [19] = test: Selectivity ratio for human mGluR8 expressed in HEK293 cells to human mGluR2 expressed in CHO cell membranes; type: cell-based
[20] = Fraction unbound in rat plasma; type: ADME, cell-free
[21] = biological target: T3, Sodium-dependent dopamine transporter; test: Binding affinity to DAT
HEK293 [22] = test: Selectivity ratio for human mGluR1 expressed in HEK293 cells to human mGluR2 expressed in CHO cell membranes; type: cell-based
Liver microsomes [23] = test: Drug metabolism in rat liver microsomes assessed as M+O oxidative metabolite; type: ADME, Microsome

T3 sequence (Q01959 whole entry): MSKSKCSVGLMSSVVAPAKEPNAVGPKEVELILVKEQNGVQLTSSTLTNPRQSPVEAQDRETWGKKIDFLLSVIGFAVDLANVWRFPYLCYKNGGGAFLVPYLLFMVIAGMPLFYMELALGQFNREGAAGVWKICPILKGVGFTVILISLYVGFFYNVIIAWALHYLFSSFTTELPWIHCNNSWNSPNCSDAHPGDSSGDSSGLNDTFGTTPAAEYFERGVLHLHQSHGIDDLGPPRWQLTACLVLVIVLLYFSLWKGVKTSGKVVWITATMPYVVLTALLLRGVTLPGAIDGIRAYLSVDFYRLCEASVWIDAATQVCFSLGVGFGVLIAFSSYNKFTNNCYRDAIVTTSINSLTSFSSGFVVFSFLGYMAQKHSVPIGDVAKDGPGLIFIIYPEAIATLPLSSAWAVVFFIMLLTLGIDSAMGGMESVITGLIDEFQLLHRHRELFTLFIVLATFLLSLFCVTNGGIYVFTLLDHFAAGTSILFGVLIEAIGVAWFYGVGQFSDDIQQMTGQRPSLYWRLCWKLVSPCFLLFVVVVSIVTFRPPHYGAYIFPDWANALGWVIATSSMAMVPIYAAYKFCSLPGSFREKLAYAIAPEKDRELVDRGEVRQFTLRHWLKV
T2 sequence (P21728 whole entry): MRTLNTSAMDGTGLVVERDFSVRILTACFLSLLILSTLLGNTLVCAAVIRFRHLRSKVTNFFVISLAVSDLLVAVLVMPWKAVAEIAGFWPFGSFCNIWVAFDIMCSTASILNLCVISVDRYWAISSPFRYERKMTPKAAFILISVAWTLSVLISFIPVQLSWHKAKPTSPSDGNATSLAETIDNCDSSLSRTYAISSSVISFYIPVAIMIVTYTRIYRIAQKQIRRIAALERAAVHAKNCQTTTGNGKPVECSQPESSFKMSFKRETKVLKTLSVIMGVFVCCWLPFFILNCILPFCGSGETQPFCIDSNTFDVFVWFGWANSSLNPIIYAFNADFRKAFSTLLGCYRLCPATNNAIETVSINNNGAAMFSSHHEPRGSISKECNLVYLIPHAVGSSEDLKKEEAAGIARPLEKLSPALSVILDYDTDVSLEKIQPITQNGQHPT

Q: Which Selectivity ratio (CHO [1]) does the source give for `COc1ccc(F)cc1C1CCN(c2ccn3c(CC4CC4)nnc3c2Cl)CC1` here?
A: Its Selectivity ratio is over 350.

Q: What about the Cmax [2] of the same compound?
A: Its Cmax is 316 ng/g.

Q: What about the Drug metabolism (Liver microsomes [3]) of the same compound?
A: Its Drug metabolism is “Active”.

Q: What about the Selectivity ratio (HEK293 [4]) of the same compound?
A: Its Selectivity ratio is 40.

Q: What about the Selectivity ratio (HEK293 [5]) of the same compound?
A: The Selectivity ratio was over 350.

Q: What about the Drug metabolism (Liver microsomes [6]) of the same compound?
A: Its Drug metabolism is “Active”.

Q: And the Emax [7]?
A: Its Emax is 283%.

Q: What about the Ki (D(1A) dopamine receptor [8]) of the same compound?
A: Its Ki is at least 6.2 µM.

Q: What about the fraction unbound [9] of the same compound?
A: Its fraction unbound is under 0.01.

Q: What about the Activity (D(1A) dopamine receptor [10]) of the same compound?
A: Its Activity is 71%.

Q: And the IC50 [11]?
A: Its IC50 is 0.0112 µM.

Q: What about the Selectivity ratio (CHO [12]) of the same compound?
A: Its Selectivity ratio is over 350.

Q: And the Selectivity ratio (HEK293 [13])?
A: Its Selectivity ratio is over 350.

Q: What about the Drug metabolism (Liver microsomes [14]) of the same compound?
A: Its Drug metabolism is “Active”.

Q: And the concentration at 1 h [15]?
A: The concentration at 1 h was 50 ng/g.

Q: And the EC50 [16]?
A: The EC50 was 0.0082 µM.

Q: What about the Kp [17] of the same compound?
A: Its Kp is 1.1.

Q: And the Activity [18]?
A: The Activity was 83%.

Q: And the Selectivity ratio (HEK293 [19])?
A: The Selectivity ratio was over 350.

Q: What about the fraction unbound [20] of the same compound?
A: The fraction unbound was under 0.01.

Q: What about the Ki [21] of the same compound?
A: Its Ki is 5.01 µM.

Q: What about the Selectivity ratio (HEK293 [22]) of the same compound?
A: The Selectivity ratio was over 350.

Q: And the Drug metabolism (Liver microsomes [23])?
A: The Drug metabolism was “Active”.
